Test results as given in PubChem BioAssay AID844 (SRMLSC, 2007).
Active and inactive are the calls of the source. How the calls were made is not given here.

System: MRP1 cells, doxorubicin viability shift, 10 uM compound
Assay: doxorubicin EC50 increase in MRP-1 cells, dose response, cell-based, doxorubicin EC50 shift (AID 844)
Conditions: for EC50: measured here: doxorubicin EC50 with compound

Structure (SMILES)	fold increase in Dox EC50	EC50 [µM]
Cc1cccc2cc(CN(Cc3cccs3)S(=O)(=O)c3ccc4c(c3)OCCO4)c(=O)[nH]c12	1.47 (inactive)	7.94
Cc1ccc(NC(=O)CCSc2nnnn2-c2ccc3c(c2)OCO3)cc1C	0.74 (inactive)	3.98
CCc1nnc(NC(=O)c2ccc(S(=O)(=O)N(CC)CC)cc2)s1	0.69 (inactive)	3.73
COc1ccc(-c2c(C#N)c(N)nc3sc(C(=O)c4ccccc4)c(N)c23)cc1	0.34 (inactive)	1.86
O=C1CC(c2ccccc2)c2cc(O)ccc2O1 (stereo not drawn)	0.99 (inactive)	5.35
CCn1c(COc2ccc(Cl)cc2)nnc1SC1CCc2ccccc2C1=O (stereo not drawn)	0.71 (inactive)	3.81
Cc1cccc(-n2ncc3c(N4CC(C)CC(C)C4)ncnc32)c1 (stereo not drawn)	0.6 (inactive)	3.25
O=C(COc1nsnc1N1CCOCC1)N/N=C/c1ccccc1O	0.26 (inactive)	1.39
COc1ccc(NC(=O)c2c(F)cccc2F)cc1S(=O)(=O)Nc1ccc(Br)cc1	0.71 (inactive)	3.86
CC(C)c1ccc(CNc2cc(N3CCCC3)ccc2[N+](=O)[O-])cc1	0.81 (inactive)	4.36
Cc1ccc(-c2cc(-c3ccccc3)no2)c(O)c1	0.59 (inactive)	3.2
COC1(OC)C(=N/O)/C(=N\O)CCC1O (stereo not drawn)	0.77 (inactive)	4.16
O=C(Nc1cccc(Cl)c1)c1c(O)c2c(n(Cc3ccccc3)c1=O)CCCC2	1.14 (inactive)	6.17
c1ccc(OCCSc2nc3ccccc3[nH]2)cc1	1.03 (inactive)	5.54
C=CCNc1oc(COc2ccc(C)cc2)nc1C#N	0.66 (inactive)	3.59
CN(C)c1ccc(NC(=O)CN2C(=O)CN=C(c3ccccc3)c3cc(Cl)ccc32)cc1	1.29 (inactive)	6.99
CCCCCCC1CC(CSc2ncn[nH]2)OC1=O (stereo not drawn)	1.14 (inactive)	6.14
O=C(CC(Nc1ccc(F)cc1)C(=O)OCC(=O)c1cccs1)c1ccccc1 (stereo not drawn)	0.69 (inactive)	3.73
Cc1ccc(/C=C2\SC(=S)N(CCC(=O)NNS(=O)(=O)c3ccc(C)cc3)C2=O)cc1	0.48 (inactive)	2.6
N#Cc1c(-c2cccs2)nc(SCC(=O)c2cccs2)[nH]c1=O	1.12 (inactive)	6.05
N#CC(C#N)=NNc1ccc(S(=O)(=O)N2CCCC2)cc1	1.09 (inactive)	5.88
Cc1ccc2nc3c(cc2c1)CC1(C(=O)N(C)C(=O)N(C)C1=O)C1CCCCN31 (stereo not drawn)	0.59 (inactive)	3.21
CCOC(=O)c1nnc(-c2ccccc2)nc1Oc1ccccc1Cl	0.99 (inactive)	5.34
COc1ccc(C2CC(c3ccc(Cl)cc3)n3nc(N)nc3N2)cc1 (stereo not drawn)	0.65 (inactive)	3.52
O=C(NCCN1C(=O)S/C(=C/c2ccccc2)C1=O)C1CCCN1C(=O)c1cccs1 (stereo not drawn)	0.61 (inactive)	3.3

Structure (SMILES)	fold increase in Dox EC50	EC50 [µM]
N#Cc1c(N)n(CCOC(=O)c2cccc(Br)c2)c2nc3ccccc3nc12	0.93 (inactive)	5.04
COc1cccc(Nc2ncc(C(=O)O)c3ccccc23)c1	0.56 (inactive)	3.01
O=C(Nc1ccn(Cc2c(F)c(F)cc(F)c2F)n1)c1ccc(COc2ccc(Cl)cc2Cl)o1	1.01 (inactive)	5.45
CCc1ccc(-c2nc(-c3ccncc3)no2)cc1	0.89 (inactive)	4.82
CCc1nnc(NC(=O)C2CCCN2S(=O)(=O)c2ccccc2)s1 (stereo not drawn)	1.46 (inactive)	7.89
CCOC(=O)C1=C(C)Nc2ncnn2C1c1cccnc1 (stereo not drawn)	0.83 (inactive)	4.5
Cc1ccc(C)c2[nH]c(=O)c(CN(Cc3ccco3)S(=O)(=O)c3ccc4c(c3)OCCO4)cc12	0.88 (inactive)	4.73
COc1ccccc1NS(=O)(=O)c1cc(NC(=O)/C=C/c2cccs2)ccc1N1CCOCC1	0.81 (inactive)	4.36
O=C(NC1CCCC1)C(c1c[nH]c2ccccc12)N(C(=O)Cn1nnc(-c2ccc(Cl)cc2)n1)c1ccccc1 (stereo not drawn)	0.99 (inactive)	5.35
Cc1cc(C)cc(-c2nc(-c3ccncc3)no2)c1	0.77 (inactive)	4.13
CC1(C)Cc2c(sc3nnn(Cc4ccc(Cl)cc4)c(=O)c23)CO1	0.85 (inactive)	4.57
Cc1nc(/N=C(\N)NC(=O)N2c3ccccc3Sc3ccccc32)nc2ccccc12	0.95 (inactive)	5.12
COc1cc(NS(=O)(=O)c2ccc(C)cc2)ccc1-n1cnnn1	1.02 (inactive)	5.51
COc1ccc(N2CCN(c3oc(COc4ccc(Cl)cc4)nc3C#N)CC2)cc1	1.64	8.88
C=C(Cl)COc1ccc2c(CCCC)cc(=O)oc2c1	0.81 (inactive)	4.35
CC1CCC(NC(=O)Cn2c3c(c(-c4ccccc4Cl)cc2=O)CCC3)CC1 (stereo not drawn)	1.13 (inactive)	6.11
Cc1nnc2sc(-c3ccncc3)nn12	0.8 (inactive)	4.31
CC(=O)NN1C(=O)/C(=C\c2ccc(C)cc2)SC1=S	1.47 (inactive)	7.96
O=C(Nc1ncc(Cc2ccc(C(F)(F)F)cc2)s1)c1ccc(-c2cccc([N+](=O)[O-])c2)o1	0.71 (inactive)	3.86
COc1ccc(Cl)cc1NC(=O)CSc1nnc(COc2ccccc2)n1N	0.86 (inactive)	4.64
Cc1sc2nc(C3CC3)nc(N3CCN(S(=O)(=O)c4ccc(F)cc4)CC3)c2c1C	0.3 (inactive)	1.63
C=CCNC(=O)c1ccccc1NC(=O)c1ccc(Cl)c(S(=O)(=O)Nc2cccc(C)c2C)c1	0.36 (inactive)	1.96
CN(CC(=O)NCCc1ccc(Cl)cc1)S(=O)(=O)c1ccc2c(c1)c(=O)n(C)c(=O)n2C	0.54 (inactive)	2.93
CC(C)Oc1ccc(CSC(=N)N)cc1	0.89 (inactive)	4.81
CCOc1ccc(NC(=O)Nc2cc(-c3ccccc3)sc2C(=O)OC)cc1	0.62 (inactive)	3.34

Structure (SMILES)	fold increase in Dox EC50	EC50 [µM]
Cc1ccc(COc2cccc3c2CCN(Cc2ccc(F)cc2)C3=O)cc1	1.02 (inactive)	5.52
C=CCOC(=O)C(C#N)c1nc2ccccc2nc1N1CCN(c2ccccc2OCC)CC1 (stereo not drawn)	0.56 (inactive)	3.05
O=C1OC(Nc2ccccn2)c2ccccc21 (stereo not drawn)	0.81 (inactive)	4.35
Cc1ccc(C(=O)Nc2nnc(C)s2)o1	1.32 (inactive)	7.14
COc1ccc(CNc2nc(NCc3ccc(OC)cc3)n(C(=O)c3ccccc3[N+](=O)[O-])n2)cc1	0.72 (inactive)	3.9
Cc1ccccc1NC(=O)CC1SC(=O)N(c2ccccc2)C1=O (stereo not drawn)	1.35 (inactive)	7.29
O=C1c2cccc3cccc(c23)C(=O)N1c1ccncc1	1.13 (inactive)	6.09
Cc1ccc2c(C)nc(/N=C(\N)NC(=O)N3c4ccccc4Sc4ccccc43)nc2c1	1.38 (inactive)	7.48
CC(=O)Nc1ccc(-n2c(C)nc(=O)c(-c3ccccc3)c2C)cc1	0.89 (inactive)	4.83
CCOc1ccc(OCC)c(-c2c(=O)n(OCc3ccc(C(C)(C)C)cc3)c3ccccc3[n+]2[O-])c1	0.85 (inactive)	4.6
C/C(=N/NC(=S)Nc1ccccc1)c1ccc2c(c1)OCO2	1.01 (inactive)	5.46
Cc1ccc(/C=C2\SC(=S)N(CCC(=O)NNC(=O)c3cccnc3)C2=O)cc1	0.91 (inactive)	4.9
COc1ccc(N2C(=O)C(CC(=O)Nc3ccc(F)cc3)N(CCc3cccs3)C2=O)cc1 (stereo not drawn)	0.81 (inactive)	4.38
COc1ccc(C2C(C(=O)OCC(=O)NC(C)(C)C)CCC(=O)N2c2ccc(C)cc2)cc1OC (stereo not drawn)	0.81 (inactive)	4.36
Cc1ccc(N/N=C(\C#N)C(=N)N2CCOCC2)cc1	0.92 (inactive)	4.95
Cc1cccc(C2CC(c3ccccc3)Nc3ncnn32)c1 (stereo not drawn)	0.46 (inactive)	2.46
COc1cccc(C2CC(c3ccc(Cl)cc3)Nc3nc(N)nn32)c1 (stereo not drawn)	0.88 (inactive)	4.77
CCc1c(C)sc(NC(=O)c2cc(CC(C)C)on2)c1C#N	0.64 (inactive)	3.45
CCC1SC2=NC(C)=C(C(=O)OCCOC)C(c3ccc(C(=O)OC)cc3)N2C1=O (stereo not drawn)	0.92 (inactive)	4.98
COC(=O)CCc1c(C)[nH]c(C(=O)OCc2ccccc2)c1C	0.85 (inactive)	4.57
CC1(C)O[C@@H]2C[C@H]3[C@@H]4C[C@H](F)C5=CC(=O)CC[C@]5(C)[C@H]4[C@@H](O)C[C@]3(C)[C@]2(C(=O)CO)O1	0.65 (inactive)	3.52
Cc1nc(N2CCN(Cc3ccccc3)CC2)nc2c1C(=O)CC(c1ccco1)C2 (stereo not drawn)	0.75 (inactive)	4.04
Cc1ccc(N=Nc2c(N)[nH]n3c(=O)cc(-c4ccccc4)nc23)cc1	0.08 (inactive)	0.452
COc1cccc(Nc2nc3ccccc3nc2-n2nc(C)cc2C)c1	0.35 (inactive)	1.89
